This note sets out measurements from PMC8704707 (Pharmaceuticals, 2021).

Data set [1] concerns four Gram-positive and four Gram-negative bacterial strains. The experiment in a line: Antibacterial microdilution broth method, whole panel. The class given is cell-based. The conditions noted are these: read-out: MIC, all bacterial strains tested.
Data set [2] addresses AChE from electric eel (EeAChE) (Electrophorus electricus, UniProt O42275). As to the kind of experiment: biochemical. The class given is biochemical.
Data set [3] has as its target BuChE from equine serum (EqBuChE) (Equus caballus, UniProt P81908). The experiment in a line: biochemical. The following applies: read-out: IC50 BuChE.
Data set [4] deals with eight human pathogenic fungi. The experiment in a line: Antifungal microdilution broth method, whole panel. It is filed as cell-based. The conditions noted are these: not reported in Table 2, read-out: MIC, all fungal strains tested. In general terms: In broth dilution the organism is exposed to a series of concentrations in liquid medium.
The subject of data set [5] is Candida krusei ATCC 6258. The experiment in a line: microbe, parasite or virus in culture. It is filed as cell-based. The conditions noted are these: Pichia kudriavzevii.
The test system of data set [6] is Candida parapsilosis ATCC 22019. As to the kind of experiment: microbe, parasite or virus in culture. The following applies: Lodderomyces parapsilosis. The class given is cell-based.
The test system of data set [7] is Candida albicans ATCC 24443. The experiment in a line: microbe, parasite or virus in culture. It is filed as cell-based.
The subject of data set [8] is Candida tropicalis ATCC 750. As to the kind of experiment: microbe, parasite or virus in culture. It is filed as cell-based.
Data set [9] has as its system Trichophyton interdigitale ATCC 9533. The experiment in a line: microbe, parasite or virus in culture. It is filed as cell-based.
The test system of data set [10] is methicillin-resistant Staphylococcus aureus ATCC 43300. As to the kind of experiment: Antibacterial microdilution broth method (EUCAST). The following applies: ATCC 43300 / MRSA. The class given is cell-based.
Data set [11] has as its system Escherichia coli ATCC 25922. The experiment in a line: Antibacterial microdilution broth method (EUCAST). It is filed as cell-based.
Data set [12] deals with Staphylococcus epidermidis ATCC 12228. As to the kind of experiment: Antibacterial microdilution broth method (EUCAST). It is filed as cell-based.
Data set [13] relates to Acinetobacter baumannii ATCC 19606. As to the kind of experiment: Antibacterial microdilution broth method (EUCAST). The class given is cell-based.
Data set [14] deals with Enterococcus faecalis ATCC 29212. The experiment in a line: Antibacterial microdilution broth method (EUCAST). The class given is cell-based.
In data set [15] the test system is Staphylococcus aureus ATCC 29213. The experiment in a line: Antibacterial microdilution broth method (EUCAST). It is filed as cell-based.
In data set [16] the test system is Klebsiella pneumoniae ATCC 10031. The following applies: for MIC KP 24 h: 24 h incubation; for MIC KP 48 h: 48 h incubation.
The test system of data set [17] is Pseudomonas aeruginosa ATCC 27853. As to the kind of experiment: Antibacterial microdilution broth method (EUCAST). It is filed as cell-based.
Data set [18] deals with HepG2 cells. The following applies: read-out: IC50 cytotoxicity towards HepG2 cell line; CellTiter 96, 24 h incubation.
Procedure: (§1) Cytotoxicity of the tested compounds was measured using the standard hepatic cell line HepG2. The used CellTiter 96® assay is based on the reduction of tetrazolium dye (MTS) in living cells to formazan, which is then determined colorimetrically.
Data set [19] in a line: in vitro. The following applies: human, HepG2 cells.
For data set [20], the system named is HepG2 cells. As to the kind of experiment: LDH release assay (CytoTox 96), membrane integrity. The conditions noted are these: read-out: EC50 LDH release assay; HepG2, 24 h incubation. On the technique in general: LDH leaks from cells whose membrane has failed.
A short description of data set [21]: in vitro. The conditions noted are these: human, HepG2 cells. The source holds these as a separate data set.
Procedure: as §1
[22] abbreviates: mean ± SD, n = three independent experiments, ATCh 40 µM, read-out: IC50 AChE.
[23] abbreviates: mean ± SD, n = three independent experiments, BTCh 40 µM.
Where [24] appears, read: ATCC25922, 24 h, read-out: MIC EC 24 h.
Where [25] appears, read: ATCC25922, 48 h, read-out: MIC EC 48 h.
[26] abbreviates: ATCC12228, 24 h, read-out: MIC SE 24 h.
The mark [27] stands for this setting: ATCC12228, 48 h, read-out: MIC SE 48 h.
The mark [28] stands for this setting: ATCC19606, 24 h, read-out: MIC ACI 24 h.
The mark [29] stands for this setting: ATCC19606, 48 h, read-out: MIC ACI 48 h.
The mark [30] stands for this setting: ATCC29212, 24 h, read-out: MIC EF 24 h.
[31] abbreviates: ATCC29212, 48 h, read-out: MIC EF 48 h.
Setting [32] is: ATCC29213, 24 h, read-out: MIC SA 24 h.
Where [33] appears, read: ATCC29213, 48 h, read-out: MIC SA 48 h.
The mark [34] stands for this setting: ATCC27853, 24 h, read-out: MIC PA 24 h.
[35] abbreviates: ATCC27853, 48 h, read-out: MIC PA 48 h.

The structures appear in SMILES notation. In brackets after ≈: the same amount, converted by molar mass. Where two headings read alike, the source gives them in different places.

Chain of BuChE from equine serum (EqBuChE) (P81908 whole entry): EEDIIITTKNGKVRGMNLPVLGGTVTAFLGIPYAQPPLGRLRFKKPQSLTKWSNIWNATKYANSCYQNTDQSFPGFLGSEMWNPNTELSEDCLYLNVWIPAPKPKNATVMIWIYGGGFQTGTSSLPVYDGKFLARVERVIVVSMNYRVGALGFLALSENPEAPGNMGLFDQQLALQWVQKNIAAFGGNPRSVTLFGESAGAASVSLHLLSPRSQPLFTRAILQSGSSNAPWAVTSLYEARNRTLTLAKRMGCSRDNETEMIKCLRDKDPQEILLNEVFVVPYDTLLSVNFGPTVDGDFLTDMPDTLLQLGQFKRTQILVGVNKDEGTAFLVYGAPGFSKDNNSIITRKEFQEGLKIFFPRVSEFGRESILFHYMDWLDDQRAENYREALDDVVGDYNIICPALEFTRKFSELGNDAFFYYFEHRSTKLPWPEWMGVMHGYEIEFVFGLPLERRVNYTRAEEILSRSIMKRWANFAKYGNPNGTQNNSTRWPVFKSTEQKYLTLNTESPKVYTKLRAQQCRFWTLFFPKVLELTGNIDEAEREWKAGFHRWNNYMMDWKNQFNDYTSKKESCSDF
Chain of AChE from electric eel (EeAChE) (O42275 24-633): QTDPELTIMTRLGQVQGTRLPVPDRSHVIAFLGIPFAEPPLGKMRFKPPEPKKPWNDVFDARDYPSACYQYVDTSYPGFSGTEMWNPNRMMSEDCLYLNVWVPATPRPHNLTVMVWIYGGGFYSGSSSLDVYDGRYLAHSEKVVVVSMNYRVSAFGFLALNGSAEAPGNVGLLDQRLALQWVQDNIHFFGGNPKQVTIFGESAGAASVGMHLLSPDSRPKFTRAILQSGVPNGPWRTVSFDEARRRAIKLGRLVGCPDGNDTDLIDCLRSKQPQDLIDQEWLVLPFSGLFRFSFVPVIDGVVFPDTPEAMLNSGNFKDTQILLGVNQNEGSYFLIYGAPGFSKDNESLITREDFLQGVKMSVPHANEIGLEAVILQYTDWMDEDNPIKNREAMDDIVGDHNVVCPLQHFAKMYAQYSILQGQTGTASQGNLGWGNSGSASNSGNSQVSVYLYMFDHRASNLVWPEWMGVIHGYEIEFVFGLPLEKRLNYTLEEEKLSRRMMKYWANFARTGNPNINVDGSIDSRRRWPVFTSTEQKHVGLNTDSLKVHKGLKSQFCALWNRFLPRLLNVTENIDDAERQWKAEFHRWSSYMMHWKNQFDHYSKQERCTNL

As to `[H]/N=C(\NN=Cc1cc(I)cc(I)c1O)N[N+](=O)[O-]` [Compound 2f, (E)-2-(2-Hydroxy-3,5-diiodobenzylidene)-N-nitrohydrazine-1-carboximidamide], the MIC in data set [1] and in [4] was not below 500 µM throughout. For the same compound, the IC50 in [2] (setting [22]) was 34.78 ± 0.04 µM; in data set [3] (setting [23]), more than 500 µM.

As to `N=C(N/N=C/c1cc(I)cc(I)c1O)N/N=C/c1cc(I)cc(I)c1O` [Compound 2g, Bis[2-((E)-2-hydroxy-3,5-diiodobenzylidene)hydrazineyl]methaniminium chloride], the MIC in data set [1] was not below 500 µM; in data set [5] (ATCC6258, 24 h, read-out: MIC CK 24 h) it was more than 500 µM; in data set [5] (ATCC6258, 48 h, read-out: MIC CK 48 h) it was more than 500 µM; in data set [6] (ATCC22019, 24 h, read-out: MIC CP 24 h), more than 500 µM; in data set [6] (ATCC22019, 48 h, read-out: MIC CP 48 h), more than 500 µM; in data set [7] (ATCC24443, 24 h, read-out: MIC CA 24 h), more than 500 µM. For the same compound, the MIC in [7] (ATCC24443, 48 h, read-out: MIC CA 48 h) was more than 500 µM; in data set [8] (ATCC750, 24 h, read-out: MIC CT 24 h), more than 500 µM; in [8] (ATCC750, 48 h, read-out: MIC CT 48 h), more than 500 µM; in data set [9] (ATCC9533, 72 h, read-out: MIC TI 72 h) it was 250 µM; in data set [9] (ATCC9533, 120 h, read-out: MIC TI 120 h), 250 µM. The IC50 was 54.9 ± 1.72 µM in data set [2] and 8.26 ± 0.21 µM in data set [3].

Take `NC(=O)N/N=C/c1cc(I)cc(I)c1O` [Compound 2h, (E)-2-(2-Hydroxy-3,5-diiodobenzylidene)hydrazine-1-carboxamide]: the MIC is 500 µM (≈ 215 µg/mL) in [10] (24 h, read-out: MIC MRSA 24 h); 500 µM (≈ 215 µg/mL) in [10] (48 h, read-out: MIC MRSA 48 h); more than 500 µM in [11] (setting [24]); more than 500 µM in data set [11] (setting [25]); 125 µM (≈ 53.9 µg/mL) in [12] (setting [26]); 125 µM (≈ 53.9 µg/mL) in [12] (setting [27]). Further, the MIC in [4] was not below 500 µM; in data set [13] (setting [28]), more than 500 µM; in data set [13] (setting [29]), more than 500 µM; in [14] (setting [30]), more than 500 µM; in [14] (setting [31]) it was more than 500 µM; in data set [15] (setting [32]), 250 µM (≈ 108 µg/mL). The values for the MIC in [15] (setting [33]), in data set [17] (setting [34]) and in [17] (setting [35]) were 250 µM (≈ 108 µg/mL), more than 500 µM and more than 500 µM, respectively. In [2], the “Selectivity AChE/BuChE” value is 0.88. Further, the IC50 in [2] (setting [22]) was 30.7 ± 0.33 µM; in data set [3] (setting [23]) it was 34.7 ± 0.35 µM. The “MIC KP 24 h” value in data set [16] is recorded as more than 500 µM. Further, the “MIC KP 48 h” value in data set [16] was more than 500 µM.

Take `NC(=S)N/N=C/c1cc(I)cc(I)c1O` [Compound 2i, (E)-2-(2-Hydroxy-3,5-diiodobenzylidene)hydrazine-1-carbothioamide]: the MIC was 500 µM (≈ 224 µg/mL) in [10] (24 h, read-out: MIC MRSA 24 h); 500 µM (≈ 224 µg/mL) in data set [10] (48 h, read-out: MIC MRSA 48 h); more than 500 µM in [11] (setting [24]); more than 500 µM in [11] (setting [25]); 250 µM (≈ 112 µg/mL) in [12] (setting [26]); 250 µM (≈ 112 µg/mL) in data set [12] (setting [27]). Further, the MIC in data set [4] is not below 500 µM; in data set [13] (setting [28]), more than 500 µM; in data set [13] (setting [29]) it was more than 500 µM; in data set [14] (setting [30]) it was 250 µM (≈ 112 µg/mL); in data set [14] (setting [31]), 250 µM (≈ 112 µg/mL); in [15] (setting [32]), 500 µM (≈ 224 µg/mL). The MIC was 500 µM (≈ 224 µg/mL) in [15] (setting [33]), more than 500 µM in data set [17] (setting [34]) and more than 500 µM in [17] (setting [35]). In [2], the “Selectivity AChE/BuChE” value was 0.61. The IC50 amounted to 52.22 ± 0.4 µM in data set [2] (setting [22]) and 86.24 ± 0.39 µM in data set [3] (setting [23]). The “MIC KP 24 h” value in data set [16] is recorded as more than 500 µM. Further, in data set [16], the “MIC KP 48 h” value is given as more than 500 µM.

Consider `NC(=S)N/N=C/c1ccc([N+](=O)[O-])o1` [Compound 3e, (E)-2-[(5-Nitrofuran-2-yl)methylene]hydrazine-1-carbothioamide], for which the MIC in data set [10] (24 h, read-out: MIC MRSA 24 h) turned out to be 62.5 µM (≈ 13.4 µg/mL); in [10] (48 h, read-out: MIC MRSA 48 h), 62.5 µM (≈ 13.4 µg/mL); in data set [11] (setting [24]), 125 µM (≈ 26.8 µg/mL); in data set [11] (setting [25]) it was 250 µM (≈ 53.6 µg/mL); in [12] (setting [26]) it was 31.2 µM (≈ 6.69 µg/mL); in data set [12] (setting [27]), 62.5 µM (≈ 13.4 µg/mL). For the same compound, the MIC in data set [13] (setting [28]) was more than 500 µM; in data set [13] (setting [29]), more than 500 µM; in data set [14] (setting [30]), 125 µM (≈ 26.8 µg/mL); in data set [14] (setting [31]) it was 125 µM (≈ 26.8 µg/mL); in data set [15] (setting [32]), 62.5 µM (≈ 13.4 µg/mL); in data set [15] (setting [33]), 62.5 µM (≈ 13.4 µg/mL). Besides, the MIC in data set [17] (setting [34]) and in data set [17] (setting [35]) was more than 500 µM in each case. The “Selectivity AChE/BuChE” value in data set [2] is recorded as less than 0.07. Besides, the values for the IC50 in data set [2] (setting [22]), in [18] and in data set [3] (setting [23]) were 33.16 ± 0.06 µM, 29.8 µM and more than 500 µM, respectively. This compound showed an EC50 at 24 h in data set [19] of less than 6 µM. Besides, the EC50 in data set [20] was 5.25 µM. The compound also had an IC50 at 24 h in data set [21] of more than 29 µM. Further, the “MIC KP 24 h” value in [16] is 62.5 µM (≈ 13.4 µg/mL). Moreover, the “MIC KP 48 h” value in data set [16] is listed as 62.5 µM (≈ 13.4 µg/mL).

As usually defined, the IC50 is the point on the concentration scale where inhibition reaches its midpoint. The term EC50 denotes the concentration that produces a half-maximal response.
